Laboratory results: article PMC8309014, “Lactose-Gated Mesoporous Silica Particles for Intestinal Controlled Delivery of Essential Oil Components: An In Vitro and In Vivo Study” (Pharmaceutics, 2021)

How the values were obtained:
[1] = in vivo; conditions: male, Wistar, rat, po
Method: The EOC concentration in the aliquots of each specific section ((i) cargo release experiments, Section 2.6; (ii) EOCs permeability across the intestinal barriers, Section 2.13; and (iii) in vivo pharmacokinetic assays, Section 2.17) was analyzed by HPLC. For Thy and Eug molecules, the mobile phase used was ACN:H2O 50:50 v/v with 0.05% of TFA and absorbance detector using λex = 280 nm. For Cin, the mobile phase was ACN:H2O 85:15 v/v with 0.05% of TFA and λex = 254 nm. […] of volume injection were used and a flow of 1 mL/min was fixed. The methods were previously validated with adequate linearity, precision and accuracy (R > 0.99 and coefficient of variation < 5%).
In vivo experiments with M41-Cin-L in a Wistar rat model were carried out in order to study the concentration of cinnamaldehyde, free and encapsulated, in plasma and in the different gastrointestinal sections. The animal study was approved by the Scientific Committee of the Faculty of Pharmacy Universidad Miguel Hernández, Elche (project reference DI-MBS-02-15) and followed the guidelines described in the EC Directive 86/609, the Council of the Europe Convention ETS 123 and Spanish national laws governing the use of animals in research (Real Decreto 223/1988, BOE 67, 18-3-98:8509-8511). […] The concentration of Cin in each sample was determined by HPLC following the methodology described in Section 2.7.

[2] = test system: MCP-1; assay: Inflammatory response measurement: MCP-1 release in apical media; format: cell-based, Human; conditions: 24 h, EOC 200 μM free or in M41-EOC-L; LPS 10 μg/mL positive control
Method: The Caco-2 cell epithelia were incubated in cell culture medium with each treatment, free EOCs (200 μM) and […] solids (concentration of particles corresponding to a 200 μM EOC-payload), during the time required to perform the assay: 90 min for EOCs permeability (see Section 2.13) and 24 h for the other interaction studies (Lucifer yellow, Section 2.14, and inflammatory response measurement, Section 2.15). In addition, some cell inserts were incubated with free medium at the same conditions as negative controls. TEER measurements were performed before and after each treatment to ascertain the validity of the membranes before the assay and to know the treatment's effect on them. Inflammatory cytokine and chemokine release (IL-8, MCP-1) was measured in the apical media from the enterocyte layers after 24 h of treatment with the corresponding […]-EOC-L and free EOCs. For the measurement, a Bio-Plex 1 MAGPIX TM Multiplex Reader (Bio-Rad) was employed according to the manufacturer-described-procedure. The cells were stimulated with 10 μg/mL LPS as positive control.

| Structure (SMILES) | Tmax [1] [h] | half-life [1] [h] | MCP-1 levels in the apical compartment [2] |
| --- | --- | --- | --- |
| O=C/C=C/c1ccccc1 [Cin, cinnamaldehyde] | 0.75 | 1.36 | – |
| C=CCc1ccc(O)c(OC)c1 [Eug, eugenol] | – | – | increases its levels |
